How the values were obtained:
[1] = Setting time and exotherm (setting temperature) of cyanoacrylate film polymerized via initiator-impregnated porous applicator tip; assay type: physicochemical; details: Quadrol as initiator in porous tip with 2-OCA formulations A and B
[2] = potentiometric titration at 25° C. in 0.15 M sodium chloride solution; cited from earlier work

CC(O)CN(CCN(CC(C)O)CC(C)O)CC(C)O (stereo not drawn) [Quadrol, N,N,N′,N′-tetrakis(2-hydroxypropyl)ethylenediamine]
cure time [1]: clinically acceptable timeframe
pKa1 (tertiary amine group) [2]: 8.99±0.04
pKa2 (quaternary ammonium form) [2]: 4.30±0.04

Reference: US20100249698A1, “CONTROLLED EXOTHERM OF CYANOACRYLATE FORMULATIONS” (priority 2009, published 2010)
